Like-named read-outs stand apart in the source and are kept apart here.
What was measured:
CCR5 [1] = test system: CCR5
CXCR4 = conditions: cited from earlier work
[2] = test system: mu-opioid receptor (OPRM1)
[3] = test system: morphine-induced respiratory depression
[4] = test system: sucrose self-administration; assay: Sucrose self-administration (FR and PR); type: in vivo, rat (male Sprague Dawley); conditions: RAP-103 1 mg/kg IP; P>0.05 vs saline
Excerpt: (§1) Adult male Sprague Dawley (226-275 g) were purchased from Taconic Laboratories and maintained on a 12-hour/12-hour light/dark cycle with the lights off at 9:30 a.m. in a temperature- and humidity-controlled animal care facility. For the duration of the experiment, rats were housed two per cage and given unrestricted access to food and water at all times when in the home cage.
Progressive ratio (PR) schedules of drug delivery are used to determine the ‘motivational’ state of an animal and drug reinforcing efficacy. A progressive ratio (PR) schedule requires the subject to perform an increasing number of lever presses for the next successive presentation of a reinforcer (e.g., heroin or sucrose). […] BP is a dependent measure used to quantify the degree to which the subject will work to get the next administration of the drug which serves as a reinforcer in the self-administration paradigm. […]
Subjects were given access to self-administer sucrose pellets for 12-14 d for 2 h each day. […] All responses were recorded using the Med-Associates software. […]
Respiratory depression data were analyzed by two-way ANOVA (RAP-103 pretreatment×morphine treatment) followed by a Bonferroni's multiple comparison test. Physical dependence data were analyzed by a Student's t-test. […] SA PR challenge data were analyzed by a Student's t-test. […]

[5] = test system: heroin self-administration; assay: Heroin intravenous self-administration (FR and PR); type: in vivo, rat (male Sprague Dawley); conditions: RAP-103 1 mg/kg IP
Excerpt: as §1
Rats were anesthetized using vaporized isoflurane delivered via nebulizer. An indwelling silastic catheter was threaded subcutaneously over the shoulder blade, inserted in the jugular vein and sutured in place. The catheter routed to a cotton back mount platform that was sutured below the skin between the shoulder blades. Post-operation, catheters were flushed daily with 0.2 ml of timentin (0.93 mg/mL) dissolved in heparinized saline and covered with magnetic aluminum caps.
Following 5 days of post-operative recovery, rats began daily intravenous self-administration of heroin in Med-Associates operant chambers for at least 10 d. […] During IVSA, infusions of 0.1 mg/kg/inf heroin were rewarded to the animal after pressing the active lever. […]
Progressive ratio (PR) schedules of drug delivery are used to determine the ‘motivational’ state of an animal and drug reinforcing efficacy. […] BP is a dependent measure used to quantify the degree to which the subject will work to get the next administration of the drug which serves as a reinforcer in the self-administration paradigm. […]
Respiratory depression data were analyzed by two-way ANOVA (RAP-103 pretreatment×morphine treatment) followed by a Bonferroni's multiple comparison test. Physical dependence data were analyzed by a Student's t-test. Self-administration (SA) time-course data for heroin and sucrose were analyzed by two-way ANOVA (RAP-103 treatment x day) followed by a Bonferroni's multiple comparison test. SA PR challenge data were analyzed by a Student's t-test. Protein and mRNA data were analyzed by two-way ANOVA (RAP-103 pretreatment x morphine treatment) followed by a Newman-Keuls post-hoc analysis. […]

CCR8 = conditions: mechanism involving CCR8; cited from earlier work
[6] = type: in vivo, rodents and non-human primates (Rhesus macaque)
CCR5 [7] = conditions: cited from earlier work
[8] = RAP-103 only vs drug-naïve, P>0.05
[9] = RAP-103 pretreatment 1 mg/kg IP + morphine, P<0.05
[10] = RAP-103 1, 3 mg/kg IP in morphine-naïve rats vs saline, P>0.05
[11] = RAP-103 1 or 3 mg/kg IP 30 min before morphine 5 mg/kg SC, 60 min

D-Thr-D-Thr-D-Asn-D-Tyr-D-Thr [RAP-103]
CCR5 protein levels, NAC (CCR5 [1]; [8]): did not display significantly different levels
CCR5 protein levels, VTA (CCR5 [1]; [8]): not significantly different
CCR5 protein levels, NAC (CCR5 [1]; [9]): normalized morphine-induced deficits in CCR5 levels
CCR5 protein levels, PFC (CCR5 [1]; rats receiving RAP-103 vs drug-naïve, P<0.05): lower CCR5 levels
inhibition of chemokine ligand binding, CXCR4 (CXCR4): at least partially inhibits
OPRM1 protein levels, PFC ([2]; RAP-103 + morphine, vs drug-naïve (P<0.01) and morphine only (P<0.05)): significantly elevated
OPRM1 protein levels, VTA [2, 9]: normalized the morphine-induced enhancement in OPRM1 levels
respiratory rate ([3]; RAP-103 1 mg/kg IP before morphine 5 mg/kg SC): abolished
cumulative respiratory rate ([3]; RAP-103 3 mg/kg IP before morphine 5 mg/kg SC, 60 min, P<0.01): normalized the morphine-induced increase in respiratory rate
SpO2, RAP-103 by itself [3, 10]: did not produce effects on SpO2
respiratory rate, RAP-103 by itself [3, 10]: did not produce effects on respiratory rate
oxygen saturation (FIGS. 1A-1B) [3, 11]: prevented the deficit in oxygen saturation
respiratory rate (FIGS. 2A-2B) [3, 11]: prevented the increase in respiratory rate
sucrose PR breakpoints [4]: not significantly different
sucrose-taking (FR-1 SA) [4]: not significantly different
responding on the inactive lever [5]: did not impact responding on the inactive lever
heroin PR breakpoint ([5]; PR challenge, P<0.05 vs saline): significantly lower breakpoints
active lever responding (heroin SA, FR-1) ([5]; heroin 0.1 mg/kg/inf, days 8 (P<0.05), 9 and 10 (P<0.001)): significantly reduced active lever responding
microglial chemotaxis (CCR8): inhibit
microglial morphological change (CCR8): inhibit
brain entry, oral compared to IV dosing ([6]; FIG. 10A): preferentially entered the brain by oral compared to IV dosing
brain entry ([6]; oral and IV dosing, rodents and non-human primates): quickly entered the brain
inhibition of chemokine ligand binding, CCR5 (CCR5 [7]): at least partially inhibits
CCR2 protein levels, VTA (CCR2; RAP-103 1 mg/kg IP + morphine): did not alter morphine enhancement of CCR2
CCR2 protein levels, PFC (CCR2; RAP-103 by itself vs drug-naïve, P<0.05): reduction in CCR2 protein levels
CCR2 protein levels, NAC (CCR2; [8]): did not display significantly different levels
CCR2 protein levels, VTA (CCR2; [8]): not significantly different
CCR2 protein levels, NAC (CCR2; RAP-103 pretreatment 1 mg/kg IP + morphine, P<0.01): normalized morphine-induced deficits in CCR2 levels

Source: US20260345723A1, “Treatments for Opioid-Induced Respiratory Depression” (priority 2023, published 2026)
